Source: ChEMBL document CHEMBL3120075 (J Med Chem, 2014)

Experiments:
[1] = Plasma concentration in fasted healthy human at 100 mg/kg, po at 24 hrs; type: ADME, organism-based; parameters: dose 100 mg/kg, route oral
[2] = Cmax in fasted healthy human at 100 mg/kg, po; type: ADME, organism-based; parameters: dose 100 mg/kg, route oral; conditions: in vivo
[3] = Tmax in fasted healthy human at 60 mg/kg, po; type: ADME, organism-based; parameters: dose 60 mg/kg, route oral; conditions: in vivo
[4] = AUC (infinity) in fasted healthy human at 10 mg/kg, po; type: ADME, organism-based; parameters: time infinity, dose 10 mg/kg, route oral; conditions: plasma
[5] = Ratio of EC50 for HCV genotype 1a H77 infected in human HuH7 cells in presence of human serum to plasma concentration in fasted healthy human at 100 mg, po at 24 hrs
[6] = Plasma concentration in fasted healthy human at 10 mg/kg, po at 24 hrs; type: ADME, organism-based; parameters: dose 10 mg/kg, route oral
[7] = Plasma concentration in fasted healthy human at 60 mg/kg, po at 24 hrs; type: ADME, organism-based; parameters: dose 60 mg/kg, route oral
[8] = AUClast in fasted healthy human at 30 mg/kg, po; type: ADME, organism-based; parameters: time 0 - last, dose 30 mg/kg, route oral; conditions: plasma
Rattus norvegicus = organism: Rattus norvegicus; assay: Toxicity in Sprague-Dawley rat assessed as adverse effects by 14 day toxicology study; type: organism-based; conditions: in vivo, 336 h
[9] = Cmax in fasted healthy human at 10 mg/kg, po; type: ADME, organism-based; parameters: dose 10 mg/kg, route oral; conditions: in vivo
[10] = Tmax in fasted healthy human at 10 mg/kg, po; type: ADME, organism-based; parameters: dose 10 mg/kg, route oral; conditions: in vivo
[11] = Half life in beagle dog at 0.2 mg/kg, iv; type: ADME, organism-based, Canis lupus familiaris; parameters: dose 0.2 mg/kg, route intravenous; conditions: in vivo
[12] = Clearance in cynomolgus monkey at 0.5 mg/kg, iv; type: ADME, organism-based, Macaca fascicularis; parameters: dose 0.5 mg/kg, route intravenous; conditions: in vivo
[13] = Half life in fasted healthy human at 3 mg/kg, po; type: ADME, organism-based; parameters: dose 3 mg/kg, route oral; conditions: in vivo
[14] = Half life in fasted healthy human at 30 mg/kg, po; type: ADME, organism-based; parameters: dose 30 mg/kg, route oral; conditions: in vivo
[15] = Clearance in Sprague-Dawley rat at 1 mg/kg, iv; type: ADME, organism-based; parameters: dose 1 mg/kg, route intravenous; conditions: in vivo
[16] = Tmax in fasted healthy human at 100 mg/kg, po; type: ADME, organism-based; parameters: dose 100 mg/kg, route oral; conditions: in vivo
Hepatitis C virus [17] = assay: Ratio of EC50 for HCV genotype 1a H77 infected in human HuH7 cells in presence of 10% BSA to EC50 for HCV genotype 1a H77 infected in human HuH7 cells; type: functional, Hepacivirus hominis, Huh-7
[18] = AUC (infinity) in fasted healthy human at 30 mg/kg, po; type: ADME, organism-based; parameters: time infinity, dose 30 mg/kg, route oral; conditions: plasma
Hepatitis C virus [19] = assay: Ratio of EC50 for HCV genotype 1b Con1 infected in human HuH7 cells in presence of human serum to EC50 for HCV genotype 1b Con1 infected in human HuH7 cells; type: functional, Hepacivirus hominis, isolate Con1, Huh-7
[20] = Half life in fasted healthy human at 60 mg/kg, po; type: ADME, organism-based; parameters: dose 60 mg/kg, route oral; conditions: in vivo
Hepatitis C virus [21] = assay: Antiviral activity against HCV genotype 1b Con1 infected in human HuH7 cells assessed as inhibition of viral RNA replication after 3 days by renilla luciferase reporter gene assay; type: functional, organism-based, Hepacivirus hominis; conditions: isolate Con1, Huh-7, 72 h
[22] = Metabolic stability in beagle dog liver microsomes assessed as hepatic extraction at 3 uM after 60 mins by LC/MS/MS analysis; type: ADME, Canis lupus familiaris; conditions: read-out: ERH
[23] = Plasma concentration in fasted healthy human at 3 mg/kg, po at 24 hrs; type: ADME, organism-based; parameters: dose 3 mg/kg, route oral
Hepatitis C virus [24] = assay: Antiviral activity against HCV genotype 1a H77 infected in human HuH7 cells assessed as inhibition of viral RNA replication after 3 days by renilla luciferase reporter gene assay in presence of 10% BSA; type: functional, organism-based, Hepacivirus hominis; conditions: genotype 1a H77, Huh-7, 72 h
[25] = Ratio of EC50 for HCV genotype 1a H77 infected in human HuH7 cells in presence of 10% BSA to plasma concentration in fasted healthy human at 3 mg/kg, po at 24 hrs; parameters: species or system Huh-7
[26] = Half life in fasted healthy human at 10 mg/kg, po; type: ADME, organism-based; parameters: dose 10 mg/kg, route oral; conditions: in vivo
[27] = Ratio of EC50 for HCV genotype 1a H77 infected in human HuH7 cells in presence of 10% BSA to plasma concentration in fasted healthy human at 100 mg, po at 24 hrs
[28] = Ratio of EC50 for HCV genotype 1a H77 infected in human HuH7 cells in presence of human serum to plasma concentration in fasted healthy human at 3 mg/kg, po at 24 hrs; parameters: species or system Huh-7
[29] = AUClast in fasted healthy human at 3 mg/kg, po; type: ADME, organism-based; parameters: time 0 - last, dose 3 mg/kg, route oral; conditions: plasma
Hepatitis C virus [30] = assay: Antiviral activity against HCV genotype 1a H77 infected in human HuH7 cells assessed as inhibition of viral RNA replication after 3 days by renilla luciferase reporter gene assay; type: functional, organism-based, Hepacivirus hominis; conditions: genotype 1a H77, Huh-7, 72 h
[31] = Metabolic stability in cynomolgus monkey liver microsomes assessed as hepatic extraction at 3 uM after 60 mins by LC/MS/MS analysis; type: ADME, Macaca fascicularis, Microsome; conditions: read-out: ERH
[32] = Oral bioavailability in Sprague-Dawley rat at 2 mg/kg; type: ADME, organism-based; conditions: in vivo

concentration at 24 h [1]: 98.8 nM
Cmax [2]: 242 nM
Tmax [3]: 5.5 h
AUC(0-inf) [4]: 0.695 µM·h
concentration at 24 h [6]: 7.94 nM
concentration at 24 h [7]: 56.4 nM
AUC(0-t) [8]: 2.24 µM·h
Cmax [9]: 21.3 nM
Tmax [10]: 5 h
half-life [11]: 7.41 h
clearance [12]: 2.83 mL/min/kg
half-life [13]: 45.2 h
half-life [14]: 37.2 h
clearance [15]: 7.17 mL/min/kg
Tmax [16]: 5.5 h
AUC(0-inf) [18]: 2.72 µM·h
half-life [20]: 44.2 h
EC50 (Hepatitis C virus [21]): 0.004 nM
hepatic extraction ratio at 1 h, 3 µM [22]: < 0.095
concentration at 24 h [23]: 2.45 nM
EC50 (Hepatitis C virus [24]): 0.21 nM
half-life [26]: 42.4 h
AUC(0-t) [29]: 0.14 µM·h
EC50 (Hepatitis C virus [30]): 0.031 nM
hepatic extraction ratio at 1 h, 3 µM [31]: < 0.127
bioavailability [32]: 32.5%
Structure (SMILES): COC(=O)N[C@H](C(=O)N1CC2(CC2)C[C@H]1c1nc(-c2ccc3c(c2)C(F)(F)c2cc(-c4ccc5[nH]c([C@@H]6[C@H]7CC[C@H](C7)N6C(=O)[C@@H](NC(=O)OC)C(C)C)nc5c4)ccc2-3)c[nH]1)C(C)C
Ratio [5]: 470
Activity (Rattus norvegicus): Non-toxic
Ratio EC50 (Hepatitis C virus [17]): 6.7
Ratio EC50 (Hepatitis C virus [19]): 6.7
Ratio [25]: 12
Ratio [27]: 470
Ratio [28]: 12
